This passage reports TGI and GI50 results from PubChem BioAssay (NCI).

Among the test systems are SN12C renal; SK-MEL-2 melanoma; SK-OV-3 ovarian; 786-0 renal; CCRF-CEM leukemia; U251 CNS; ACHN renal; RPMI-8226 leukemia; NCI-H23 lung; UACC-62 melanoma.
Holding throughout (experiment): NCI-60 cell line screen, 48 h

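Compound exposure: 48 hours, 5 concentrations, 96-well plates. GI50 = concentration required for 50% inhibition of growth. TGI is the concentration that stops growth completely.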

On to `CC(C)(CN1CCCCC1)C(=O)CC(SCCN)c1ccc(Cl)cc1` (centres undefined), for which the TGI with SN12C renal came out at 3.42 µM; in the assay with SK-MEL-2 melanoma, 3.32 µM; in the assay with SK-OV-3 ovarian it was 7.83 µM; in the assay with 786-0 renal, 3.21 µM; with CCRF-CEM leukemia it was 5.19 µM; with U251 CNS, 11.7 µM. In addition, the TGI was determined as 9.85 µM in the assay on ACHN renal, 3.86 µM in the assay on RPMI-8226 leukemia, 5.8 µM in the assay on NCI-H23 lung and 3.56 µM with UACC-62 melanoma.

As to `O=C(c1cccs1)c1nc2cc(Cl)ccc2[n+]([O-])c1C(F)(F)F`, the GI50 with SN12C renal was > 100 µM; with SK-MEL-2 melanoma, 51.2 µM; with SK-OV-3 ovarian, > 100 µM; in the assay on 786-0 renal, > 100 µM; in the assay on CCRF-CEM leukemia, > 100 µM; in the assay on U251 CNS, > 100 µM. In addition, the GI50 is > 100 µM in the assay on ACHN renal, 64 µM in the assay with RPMI-8226 leukemia, > 100 µM with NCI-H23 lung and 67.8 µM in the assay with UACC-62 melanoma. Also, the TGI in the assay on SN12C renal, in the assay with SK-MEL-2 melanoma, with SK-OV-3 ovarian, with 786-0 renal, in the assay on CCRF-CEM leukemia and in the assay on U251 CNS was > 100 µM throughout. The TGI with ACHN renal, in the assay on RPMI-8226 leukemia, in the assay with NCI-H23 lung and in the assay with UACC-62 melanoma was > 100 µM in each case.

As to `C#CCn1c(=O)c2cccnc2n(CC#C)c1=O`, the TGI in the assay on SN12C renal, with SK-MEL-2 melanoma, in the assay on SK-OV-3 ovarian, with 786-0 renal, in the assay on CCRF-CEM leukemia and in the assay on U251 CNS was > 100 µM each time. Further, the TGI in the assay on ACHN renal, with RPMI-8226 leukemia and with NCI-H23 lung was > 100 µM in each case.

`COc1ncc(-c2ccc3nccc(C#CCN4CCN(S(C)(=O)=O)CC4)c3c2)cc1NS(=O)(=O)c1ccc(F)cc1F`: the GI50 in the assay on SN12C renal was 0.124 µM; in the assay with SK-MEL-2 melanoma it was 0.116 µM; in the assay on SK-OV-3 ovarian, 0.0175 µM; in the assay with 786-0 renal, 0.0522 µM; with CCRF-CEM leukemia, 0.101 µM; in the assay with U251 CNS it was 0.211 µM. Further, the GI50 in the assay with ACHN renal is 0.05 µM; in the assay with RPMI-8226 leukemia, 0.256 µM; in the assay on NCI-H23 lung, 0.287 µM; in the assay on UACC-62 melanoma, 0.0342 µM. The TGI in the assay with SN12C renal came out at 11.7 µM; in the assay with SK-MEL-2 melanoma, 1.13 µM; in the assay with SK-OV-3 ovarian, 0.168 µM; with 786-0 renal, 3.56 µM; in the assay with CCRF-CEM leukemia, 2.49 µM; with U251 CNS it was 1.75 µM. The TGI in the assay with ACHN renal was found to be 3.39 µM; in the assay with RPMI-8226 leukemia it was 1.83 µM; in the assay on NCI-H23 lung, 5.9 µM; with UACC-62 melanoma it was 0.307 µM.

`C=C(CN1CCN(c2ccccc2C(F)(F)F)CC1)c1ccc(C(=O)Nc2ccccc2N)cc1`: the GI50 is 6.43 µM in the assay with SN12C renal; 10.3 µM in the assay on SK-MEL-2 melanoma; 11 µM with SK-OV-3 ovarian; 2.36 µM in the assay on 786-0 renal; 0.0728 µM in the assay with CCRF-CEM leukemia; 4.64 µM in the assay with U251 CNS. The GI50 was 7.19 µM in the assay on ACHN renal, 0.164 µM in the assay with RPMI-8226 leukemia, 5.93 µM in the assay with NCI-H23 lung and 9.16 µM with UACC-62 melanoma. Also, the TGI with SN12C renal was 23.9 µM; with SK-MEL-2 melanoma, > 95.1 µM; in the assay with SK-OV-3 ovarian it was > 100 µM; in the assay on 786-0 renal, 15.1 µM; in the assay with CCRF-CEM leukemia it was 0.546 µM; with U251 CNS, > 68.1 µM. The TGI is > 100 µM with ACHN renal, 1.01 µM in the assay with RPMI-8226 leukemia, > 100 µM with NCI-H23 lung and > 93.7 µM in the assay on UACC-62 melanoma.

As to `CCc1cccc(CC)c1NC(=O)CC1SC(N)=NC1=O` (centres undefined), the TGI in the assay with SN12C renal, with SK-MEL-2 melanoma, in the assay on SK-OV-3 ovarian, with 786-0 renal, in the assay on CCRF-CEM leukemia and with U251 CNS was > 100 µM in each case. Besides, the TGI with ACHN renal, in the assay on RPMI-8226 leukemia, in the assay on NCI-H23 lung and in the assay with UACC-62 melanoma was > 100 µM throughout.

In the case of `O=c1nc(N2CCCC2)nc(N2CCCC2)s1`, the TGI in the assay with SN12C renal, with SK-MEL-2 melanoma, in the assay on SK-OV-3 ovarian, with 786-0 renal, in the assay on CCRF-CEM leukemia and with U251 CNS was > 100 µM each time. In addition, the TGI in the assay with ACHN renal, with RPMI-8226 leukemia, with NCI-H23 lung and in the assay with UACC-62 melanoma was > 100 µM throughout.

As for `C/C(=N\O)c1cccc(Nc2cc(-c3ccccc3)nc3c(O)cccc23)c1`, the GI50 was 3.58 µM in the assay on SN12C renal; 8.34 µM with SK-MEL-2 melanoma; 2.62 µM in the assay on SK-OV-3 ovarian; 3.07 µM in the assay with 786-0 renal; 2.13 µM with CCRF-CEM leukemia; 2.35 µM in the assay with U251 CNS. The GI50 in the assay with ACHN renal is 6.57 µM; in the assay with RPMI-8226 leukemia it was 2.46 µM; in the assay on NCI-H23 lung, 4.2 µM; with UACC-62 melanoma, 1.64 µM. Besides, the TGI with SN12C renal is 17.2 µM; in the assay on SK-MEL-2 melanoma, 27.2 µM; with SK-OV-3 ovarian, 25 µM; in the assay with 786-0 renal, 11.5 µM; in the assay on CCRF-CEM leukemia it was > 26.5 µM; in the assay with U251 CNS, 15.8 µM. The TGI in the assay on ACHN renal was 22.5 µM; with RPMI-8226 leukemia, 7.98 µM; in the assay with NCI-H23 lung, 20.2 µM; in the assay with UACC-62 melanoma, 16.8 µM.

With `O=C(Nc1ccc(I)cc1)c1cccc([N+](=O)[O-])c1O`, the GI50 with SN12C renal was 3.54 µM; in the assay with SK-MEL-2 melanoma it was 2.6 µM; in the assay on SK-OV-3 ovarian, 3.05 µM; in the assay with 786-0 renal it was 3.53 µM; in the assay on CCRF-CEM leukemia, 2.76 µM; in the assay on U251 CNS, 3.39 µM. The GI50 with ACHN renal is 4.16 µM; in the assay with RPMI-8226 leukemia it was 1.66 µM; in the assay with NCI-H23 lung it was 2.26 µM; in the assay on UACC-62 melanoma it was 3.77 µM. For the same compound, the TGI was > 100 µM in the assay with SN12C renal; 8.79 µM in the assay on SK-MEL-2 melanoma; 44.9 µM in the assay with SK-OV-3 ovarian; 24.2 µM in the assay with 786-0 renal; 29.7 µM in the assay on CCRF-CEM leukemia; > 100 µM in the assay with U251 CNS. The TGI was > 100 µM with ACHN renal, 6.73 µM in the assay with RPMI-8226 leukemia, 8 µM in the assay on NCI-H23 lung and 24 µM with UACC-62 melanoma.
